Drawing on DBAASP, this text covers MIC for eight compounds.

One may read the MIC as the least concentration at which growth counts as inhibited. The low end stands for greater potency, the high end for weaker potency.

Some test systems named below: Shigella dysenteriae; Pseudomonas aeruginosa; Proteus mirabilis; Salmonella typhimurium; Klebsiella pneumoniae; Micrococcus luteus; Bacillus subtilis; Escherichia coli; Staphylococcus aureus; Escherichia coli SBS 363.
What all share (assay): ≥ marks a high value that may be exact or a test limit, other limits are often not marked, values filed in µg/mL are converted to µM
The subject of test [1] is Staphylococcus epidermidis.
Test [2] relates to Enterococcus faecalis NCTC 12697.
Test [3] deals with Bacillus subtilis ATCC 6633.
Test [4] has as its system Escherichia coli ATCC 25922.
In test [5] the test system is Staphylococcus aureus ATCC 6538P.
For test [6], the system named is Pseudomonas aeruginosa ATCC 27853.
Test [7] relates to Shigella dysenteriae ATCC 9752.
In test [8] the test system is Staphylococcus epidermidis ATCC 12228.
For test [9], the system named is Salmonella enterica subsp. enterica serovar Typhimurium ATCC 14028.
The test system of test [10] is Klebsiella pneumoniae ATCC 10031.
In test [11] the test system is Staphylococcus aureus ATCC 29213.

SMILES strings stand for the structures. In brackets after ≈: the same amount, converted by molar mass.

For `CC(C)C[C@H](NC(=O)[C@H](C)NC(=O)CNC(=O)[C@H](CC(C)C)NC(=O)[C@@H](N)Cc1ccccc1)C(=O)N[C@@H](Cc1ccccc1)C(=O)N[C@@H](CCCCN)C(=O)N[C@@H](CC(C)C)C(=O)N[C@@H](C)C(=O)N[C@@H](CO)C(=O)N[C@@H](CCCCN)C(=O)O` [FLGALFKLASK], the MIC against Shigella dysenteriae is not below 83.7 µM; in test [1], not below 83.7 µM; in the test with Pseudomonas aeruginosa it was 167 µM (≈ 200 µg/mL); in the test with Proteus mirabilis it was not below 167 µM; against Salmonella typhimurium, not below 167 µM; in the test with Klebsiella pneumoniae it was 167 µM (≈ 200 µg/mL). In addition, the MIC in the test on Micrococcus luteus is 10.5 µM (≈ 12.5 µg/mL); in the test with Bacillus subtilis, 20.9 µM (≈ 25 µg/mL); with Escherichia coli, 83.7 µM (≈ 100 µg/mL); in the test on Staphylococcus aureus, 20.9 µM (≈ 25 µg/mL).
On to `CC(C)C[C@H](NC(=O)[C@H](Cc1ccccc1)NC(=O)CNC(=O)[C@H](CC(C)C)NC(=O)[C@@H](N)Cc1ccccc1)C(=O)N[C@@H](Cc1ccccc1)C(=O)N[C@@H](CCCCN)C(=O)N[C@H](C(=O)N[C@@H](C)C(=O)N[C@@H](CO)C(=O)N[C@@H](CCCCN)C(=O)O)C(C)C` [FLGFLFKVASK], for which the MIC in the test with Shigella dysenteriae was not below 79.6 µM; in test [1], not below 39.8 µM; against Pseudomonas aeruginosa, more than 159 µM; in the test with Proteus mirabilis it was not below 159 µM; against Salmonella typhimurium, not below 159 µM; in the test with Klebsiella pneumoniae, 79.6 µM (≈ 100 µg/mL). For the same compound, the MIC in the test on Micrococcus luteus was determined as 9.95 µM (≈ 12.5 µg/mL); in the test on Bacillus subtilis it was 9.95 µM (≈ 12.5 µg/mL); in the test with Escherichia coli, 79.6 µM (≈ 100 µg/mL); against Staphylococcus aureus it was 9.95 µM (≈ 12.5 µg/mL).
`CC(C)C[C@H](NC(=O)[C@H](Cc1c[nH]c2ccccc12)NC(=O)CNC(=O)[C@H](CC(C)C)NC(=O)[C@@H](N)Cc1ccccc1)C(=O)N[C@@H](Cc1ccccc1)C(=O)N[C@@H](CCCCN)C(=O)N[C@H](C(=O)N[C@@H](C)C(=O)N[C@@H](CO)C(=O)N[C@@H](CCCCN)C(=O)O)C(C)C` [FLGWLFKVASK]: the minimal inhibitory concentration (MIC) with Shigella dysenteriae was 9.65 µM (≈ 12.5 µg/mL); in test [1], 9.65 µM (≈ 12.5 µg/mL); in the test on Pseudomonas aeruginosa it was 77.2 µM (≈ 100 µg/mL); in the test with Proteus mirabilis, not below 154 µM; with Salmonella typhimurium it was not below 38.6 µM; in the test on Klebsiella pneumoniae, 9.65 µM (≈ 12.5 µg/mL). For the same compound, the minimum inhibitory concentration (MIC) in the test on Micrococcus luteus worked out at 19.3 µM (≈ 25 µg/mL); in the test with Bacillus subtilis, 4.86 µM (≈ 6.3 µg/mL); with Escherichia coli, 19.3 µM (≈ 25 µg/mL); against Staphylococcus aureus, 2.39 µM (≈ 3.1 µg/mL).
With `CC(C)C[C@H](NC(=O)[C@H](C)NC(=O)[C@H](Cc1c[nH]c2ccccc12)NC(=O)[C@H](CCCCN)NC(=O)[C@@H]1CCCN1C(=O)[C@H](CC(C)C)NC(=O)[C@@H](N)Cc1ccccc1)C(=O)N[C@@H](CCCCN)C(=O)N[C@@H](Cc1c[nH]c2ccccc12)C(=O)N[C@@H](C)C(=O)N[C@@H](C)C(=O)N[C@@H](CCCCN)C(N)=O` [FLPKWALKWAAK], the MIC in [2] was not below 512 µM.
Regarding `CC(C)C[C@H](NC(=O)[C@@H](NC(=O)[C@H](CCCCN)NC(=O)[C@H](CO)NC(=O)[C@H](C)NC(=O)[C@@H](NC(=O)[C@H](CCCCN)NC(=O)[C@H](Cc1ccccc1)NC(=O)[C@@H](N)CC(C)C)C(C)C)C(C)C)C(=O)N1CCC[C@H]1C(=O)N[C@@H](CO)C(=O)N[C@H](C(=O)N[C@@H](CCCCN)C(=O)O)C(C)C` [LFKVASKVLPSVK], the minimum inhibitory concentration (MIC) in the test on Shigella dysenteriae was not below 141 µM; in test [1], not below 141 µM; in the test on Pseudomonas aeruginosa it was more than 141 µM; against Proteus mirabilis it was not below 141 µM; in the test on Salmonella typhimurium, not below 141 µM; with Klebsiella pneumoniae, more than 141 µM. The MIC in the test with Micrococcus luteus is not below 141 µM; in the test with Bacillus subtilis, not below 141 µM; against Escherichia coli, more than 141 µM; in the test on Staphylococcus aureus it was more than 141 µM.
As for `CC(C)C[C@H](NC(=O)[C@H](CC(C)C)NC(=O)[C@H](Cc1c[nH]c2ccccc12)NC(=O)[C@H](CCCCN)NC(=O)[C@H](CC(C)C)NC(=O)[C@@H](N)CC(C)C)C(=O)N[C@@H](CCCCN)C(N)=O` [LLKWLLK], the MIC in test [3] was 27.4 µM (≈ 25 µg/mL); in [4], 110 µM (≈ 99.9 µg/mL); in test [5] it was 27.4 µM (≈ 25 µg/mL); in test [6], 110 µM (≈ 99.9 µg/mL); in test [7], not below 110 µM; in test [8], 110 µM (≈ 99.9 µg/mL). The MIC in test [9] was 219 µM (≈ 200 µg/mL); in test [10] it was not below 219 µM.
On to `CC[C@H](C)[C@@H]1NC(=O)[C@H](CO)NC(=O)[C@H](CCCCN)NC(=O)[C@@H]2CSSC[C@@H](C(=O)N[C@@H](CC(=O)O)C(=O)NCC(=O)N[C@@H](CCC(N)=O)C(=O)N[C@H](C(=O)N[C@H](C(=O)N[C@H](C(=O)N[C@@H](CC(N)=O)C(=O)N[C@@H](CO)C(=O)N[C@H]3CSSC[C@@H]4NC(=O)[C@H](CCCN=C(N)N)NC(=O)CNC(=O)[C@H](Cc5ccccc5)NC(=O)[C@H](CCCCN)NC(=O)[C@H](CCCN=C(N)N)NC(=O)[C@H](CCCCN)NC(=O)[C@H](CSSC[C@@H](C(=O)N[C@@H](Cc5ccccc5)C(=O)N[C@@H](Cc5ccccc5)C(=O)O)NC(=O)[C@H](CCC(=O)O)NC(=O)[C@H]([C@@H](C)O)NC(=O)[C@H]([C@@H](C)CC)NC(=O)[C@H](Cc5ccccc5)NC(=O)CNC(=O)[C@H](CC(=O)O)NC(=O)[C@H](CO)NC4=O)NC(=O)[C@H](CC(=O)O)NC(=O)[C@H](CCC(=O)O)NC3=O)[C@@H](C)CC)[C@@H](C)O)[C@@H](C)O)NC(=O)[C@H](CO)NC(=O)[C@H](C(C)C)NC(=O)CNC(=O)[C@H](CCCCN)NC(=O)[C@H](CCCN=C(N)N)NC(=O)[C@H](CC(N)=O)NC(=O)[C@H](CC(C)C)NC(=O)[C@H](Cc3ccc(O)cc3)NC(=O)CNC(=O)[C@H](Cc3ccc(O)cc3)NC(=O)CNC(=O)[C@H](CSSC[C@H](NC(=O)[C@@H](NC(=O)[C@@H]3CCCN3C(=O)[C@H](C)NC(=O)[C@H](Cc3ccc(O)cc3)NC(=O)[C@H](C)NC(=O)[C@H](Cc3ccccc3)NC(=O)[C@@H](NC(=O)[C@@H](N)CCSC)C(C)C)[C@@H](C)O)C(=O)N[C@@H](C)C(=O)N[C@@H](CCCN=C(N)N)C(=O)N2)NC(=O)[C@H](Cc2ccc(O)cc2)NC(=O)[C@H](CCCN=C(N)N)NC(=O)[C@H](C)NC(=O)CNC1=O` [MVFAYAPTCARCKSIGARYCGYGYLNRKGVSCDGQTTINSCEDCKRKFGRCSDGFITECFF], for which the MIC is not below 100 µM with Micrococcus luteus and not below 35.4 µM against Escherichia coli SBS 363.
For `CC[C@H](C)[C@H](NC(=O)[C@H](C)NC(=O)[C@H](CCC(N)=O)NC(=O)[C@H](Cc1cnc[nH]1)NC(=O)CNC(=O)[C@H](CCSC)NC(=O)[C@@H]1CCCN1C(=O)[C@H](CCCN=C(N)N)NC(=O)CNC(=O)[C@@H]1CSSC[C@@H]2NC(=O)[C@H](CC(N)=O)NC(=O)[C@H](Cc3cnc[nH]3)NC(=O)[C@H](CCCCN)NC(=O)[C@H](CC(=O)O)NC(=O)[C@H](CC(N)=O)NC(=O)[C@H]([C@@H](C)O)NC(=O)[C@@H]3CSSC[C@H](NC(=O)[C@H](CCCCN)NC(=O)[C@H](CC(C)C)NC(=O)[C@H](CCCCN)NC(=O)[C@H](Cc4ccccc4)NC(=O)[C@H](CC(C)C)NC(=O)CNC(=O)[C@H](CCCCN)NC(=O)[C@H](CCCN=C(N)N)NC(=O)[C@H](CSSC[C@H](NC(=O)[C@@H](N)CO)C(=O)N[C@@H]([C@@H](C)CC)C(=O)N4CCC[C@H]4C(=O)N[C@@H](CCCCN)C(=O)N[C@@H](Cc4cnc[nH]4)C(=O)N[C@@H](CCC(=O)O)C(=O)N[C@@H](CCC(=O)O)C(=O)N3)NC2=O)C(=O)N[C@@H](CCC(N)=O)C(=O)N[C@H]2CSSC[C@H](NC(=O)[C@H](CCCN=C(N)N)NC(=O)[C@H](CCC(=O)O)NC(=O)[C@H]([C@@H](C)O)NC(=O)[C@@H]3CCCN3C(=O)[C@H](CCC(N)=O)NC(=O)CNC(=O)[C@H](CO)NC(=O)[C@H](CCC(=O)O)NC(=O)[C@H](CC(=O)O)NC(=O)[C@H](CC(=O)O)NC(=O)[C@H](Cc3ccccc3)NC(=O)[C@H]([C@@H](C)O)NC(=O)[C@H](CO)NC2=O)C(=O)N[C@@H](C)C(=O)N1)C(=O)N[C@@H](CCC(=O)O)C(=O)N[C@H](C(=O)NCC(=O)N[C@@H](CC(C)C)C(=O)N[C@@H](CC(N)=O)C(=O)N[C@H](C(=O)N[C@@H](Cc1ccccc1)C(=O)N[C@@H](CCCN=C(N)N)C(=O)NCC(=O)N[C@@H](CC(C)C)C(=O)N[C@@H](Cc1ccccc1)C(=O)N[C@@H](CCCCN)C(=O)NCC(=O)N[C@@H](CCCCN)C(=O)N[C@@H](CCCCN)C(=O)N[C@@H](CCCCN)C(=O)N[C@@H](CC(N)=O)C(=O)N[C@@H](CCCCN)C(=O)N[C@@H](CCCCN)C(=O)N[C@H](C(=O)N[C@@H](CCCCN)C(N)=O)[C@@H](C)O)[C@@H](C)CC)[C@@H](C)O` [SCIPKHEECTNDKHNCCRKGLFKLKCQCSTFDDESGQPTERCACGRPMGHQAIETGLNIFRGLFKGKKKNKKTK], the MIC in test [11] was more than 250 µM; against Escherichia coli SBS 363, 22.1 µM (≈ 185 µg/mL).
